Values quoted from earlier work in patent US6653351B2, “Adjuvant chemotherapy for anaplastic gliomas” (priority 2001, dated 2003).
Structures can show the parent of a compound that is named as a salt.

Conditions: in vivo

Compound	crossing of the blood brain barrier
O=NN(CCCl)C(=O)NC1CCCCC1 [Lomustine, 1-(2-chloroethyl)-3-cyclohexyl-1-nitrosourea]	crosses the blood brain barrier
CC[C@]1(O)C[C@H]2CN(CCc3c([nH]c4ccccc34)[C@@](C(=O)OC)(c3cc4c(cc3OC)N(C=O)[C@H]3[C@@](O)(C(=O)OC)[C@H](OC(C)=O)[C@]5(CC)C=CCN6CC[C@]43[C@@H]65)C2)C1 [Vincristine, vincaleukoblastine, a 22-oxo-, sulfate (1:1) (salt)]	does not appear to cross the blood brain barrier
